Article PMC7314595 (Angewandte Chemie (International ed. in English), 2016)
Entries after “also recorded” stand apart in the source; their conditions may differ.

Key:
ATAD2B bromodomain = biological target: T1, ATAD2B bromodomain (Homo sapiens, UniProt Q9ULI0); assay: ATAD2B TR-FRET; assay type: binding
T1 sequence (Q9ULI0 951-1066 limits assumed): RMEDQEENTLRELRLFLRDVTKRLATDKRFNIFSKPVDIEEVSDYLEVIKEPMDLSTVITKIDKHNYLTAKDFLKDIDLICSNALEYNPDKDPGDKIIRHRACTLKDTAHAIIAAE

colony formation = assay: Colony formation; assay type: cell-based
[1] = biological target: T2, full-length ATAD2 / histone H3.3 (Homo sapiens, UniProt Q6PL18); assay: Cellular NanoBRET displacement, full-length ATAD2 from histone H3.3; assay type: cell-based
T2 sequence (Q6PL18 1-1390): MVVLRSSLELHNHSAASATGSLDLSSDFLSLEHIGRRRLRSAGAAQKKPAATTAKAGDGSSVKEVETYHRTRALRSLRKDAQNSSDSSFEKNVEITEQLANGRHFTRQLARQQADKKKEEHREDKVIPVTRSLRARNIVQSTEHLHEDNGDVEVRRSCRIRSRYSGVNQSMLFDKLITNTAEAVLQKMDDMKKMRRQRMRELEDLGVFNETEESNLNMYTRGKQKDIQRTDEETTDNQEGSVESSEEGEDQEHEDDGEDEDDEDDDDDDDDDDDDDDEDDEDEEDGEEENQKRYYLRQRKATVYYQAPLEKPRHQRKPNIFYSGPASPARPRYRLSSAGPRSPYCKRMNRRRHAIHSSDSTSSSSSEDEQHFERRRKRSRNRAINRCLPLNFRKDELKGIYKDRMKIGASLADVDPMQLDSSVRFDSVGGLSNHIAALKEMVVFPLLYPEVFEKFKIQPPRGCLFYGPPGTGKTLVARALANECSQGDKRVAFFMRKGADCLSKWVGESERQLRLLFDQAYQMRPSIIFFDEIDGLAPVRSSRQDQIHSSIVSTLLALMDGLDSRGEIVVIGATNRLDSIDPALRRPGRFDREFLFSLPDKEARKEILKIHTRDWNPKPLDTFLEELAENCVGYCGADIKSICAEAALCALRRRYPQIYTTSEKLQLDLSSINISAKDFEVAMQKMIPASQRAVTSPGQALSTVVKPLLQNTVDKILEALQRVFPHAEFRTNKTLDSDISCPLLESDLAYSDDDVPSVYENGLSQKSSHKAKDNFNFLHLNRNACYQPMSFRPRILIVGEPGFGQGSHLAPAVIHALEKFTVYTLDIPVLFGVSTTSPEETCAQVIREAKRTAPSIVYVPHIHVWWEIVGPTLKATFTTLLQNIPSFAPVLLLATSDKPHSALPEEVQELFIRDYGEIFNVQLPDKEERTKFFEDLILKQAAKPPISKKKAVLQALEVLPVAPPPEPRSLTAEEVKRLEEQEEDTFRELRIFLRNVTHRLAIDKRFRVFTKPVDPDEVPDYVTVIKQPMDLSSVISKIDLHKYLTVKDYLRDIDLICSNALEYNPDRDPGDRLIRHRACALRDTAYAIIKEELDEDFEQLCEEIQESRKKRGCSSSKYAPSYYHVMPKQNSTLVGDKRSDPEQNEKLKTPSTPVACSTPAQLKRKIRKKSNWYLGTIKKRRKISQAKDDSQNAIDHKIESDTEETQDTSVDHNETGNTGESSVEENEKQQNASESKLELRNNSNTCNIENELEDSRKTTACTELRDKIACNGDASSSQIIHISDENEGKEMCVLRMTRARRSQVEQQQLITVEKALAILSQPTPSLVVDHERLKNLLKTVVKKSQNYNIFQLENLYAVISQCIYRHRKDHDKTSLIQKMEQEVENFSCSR

[2] = test system: genes involved in cell cycle and division; assay: Expression of genes involved in cell cycle and division; assay type: cell-based
[3] = biological target: T3, ATAD2 bromodomain / histone H3.3 (Homo sapiens, UniProt Q6PL18); assay: Cellular NanoBRET displacement, ATAD2 bromodomain from histone H3.3; assay type: cell-based; conditions: NanoBRET (Promega)
T3 sequence (Q6PL18 980-1092 limits assumed): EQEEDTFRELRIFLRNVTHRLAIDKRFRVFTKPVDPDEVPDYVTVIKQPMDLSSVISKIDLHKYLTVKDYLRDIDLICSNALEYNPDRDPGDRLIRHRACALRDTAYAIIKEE

[4] = test system: internal GSK panel of 40 targets considered as potential liabilities; assay: Internal GSK panel of 40 liability targets; conditions: data not shown
tandem BRD4 bromodomains = tandem BRD4 bromodomains (Homo sapiens, UniProt O60885); assay: BRD4 tandem isothermal titration calorimetry; assay type: binding
CLND solubility = assay type: physicochemical
Chrom logD = assay type: physicochemical; conditions: pH 7.4
BRD2 BD1 = BRD2 BD1 (Homo sapiens, UniProt P25440); assay: BRD2 BD1 TR-FRET; assay type: binding
Chain of BRD2 BD1 (P25440 74-180 limits assumed): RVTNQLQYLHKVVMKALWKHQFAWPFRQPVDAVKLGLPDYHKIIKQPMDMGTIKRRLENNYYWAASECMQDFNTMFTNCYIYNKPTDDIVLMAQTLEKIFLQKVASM

CO[C@H]1CNC[C@@H](OCC2CCC(F)(F)CC2)[C@@H]1Nc1ncc(-c2cncc(C)c2)c2cc(C)c(=O)[nH]c12 [Compound 16]
IC50 (ATAD2B bromodomain): 0.02 µM | Effects on colony formation (colony formation): only seen at high compound concentrations | Displacement of full-length ATAD2 from histone H3.3 [1]: ineffective; also recorded: does not displace full-length ATAD2 | Inhibition of genes involved in cell cycle and division [2]: only seen at high compound concentrations | Displacement of labelled ATAD2 bromodomain from histone H3.3 [3]: dose-dependent displacement; also recorded: displaces the ATAD2 bromodomain construct | Off-target activity against internal GSK panel of 40 targets [4]: inactive | Interaction with tandem BRD4 bromodomains by ITC (tandem BRD4 bromodomains): no interaction detected | solubility (CLND solubility): > 439 µM | chromatographic logD (Chrom logD): 3.2 | IC50 (BRD2 BD1): ≥ 39.8 µM
